In US7612211B2, “Benzimidazole TRPV1 inhibitors” (Janssen Pharmaceutica N.V., priority 2006, dated 2009) one finds inhibition and IC50 data, which are given here for 25 compounds.

The target of the experiment is T1, hTRPV1 (Homo sapiens, UniProt Q8NER1).
T1 construct: expressed in transfected cells; host or cells: HEK293
Put plainly: Human TRPV1 (hTRPV1) functional assay, FLIPR intracellular Ca2+, capsaicin challenge. The format is cell-based. Conditions: HEK293 cells expressing hTRPV1, capsaicin 0.030 μM challenge; for inhibition at 0.2 µM: test concentration of 0.2 μm, read-out: percent inhibition (symbol b); for pIC50: derived from a variety of test concentrations, read-out: IC50 value (symbol c). How it is done:
The functional activity of the test compounds was determined by measuring changes in intracellular calcium concentration using a Ca^++-sensitive fluorescent dye and FLIPR™ technology. Increases in Ca^++ concentration were readily detected upon challenge with capsaicin.
HEK293 cells expressing hTRPV1 were grown on poly-D-lysine coated 384 well black-walled plates (BD 354663) and 1 day later loaded with Calcium 3 Dye for 35 min at 37° C., 5% CO2 and then for 25 min at room temperature, and subsequently tested for agonist-induced increases in intracellular Ca^2+ levels using FLIPR™ technology. Cells were challenged with test compounds (at varying concentrations) and intracellular Ca^2+ was measured for 5 min prior to the addition of capsaicin to all wells to achieve a final concentration of 0.030 μM eliciting ˜80% maximal response.
EC50 or IC50 values were determined from concentration-response studies, which were generated using the average of quadruplicate wells for each data point. The symbol “a” represents percent inhibition obtained at a test concentration of 0.5 μm; the symbol “b” represents percent inhibition obtained at a test concentration of 0.2 μm; the symbol “c” represents an IC50 value (nM) derived from a variety of test concentrations. The term “NA” means that the result is not applicable for a particular compound.

pIC50: −log10 of the molar value.

T1 sequence (Q8NER1 whole entry): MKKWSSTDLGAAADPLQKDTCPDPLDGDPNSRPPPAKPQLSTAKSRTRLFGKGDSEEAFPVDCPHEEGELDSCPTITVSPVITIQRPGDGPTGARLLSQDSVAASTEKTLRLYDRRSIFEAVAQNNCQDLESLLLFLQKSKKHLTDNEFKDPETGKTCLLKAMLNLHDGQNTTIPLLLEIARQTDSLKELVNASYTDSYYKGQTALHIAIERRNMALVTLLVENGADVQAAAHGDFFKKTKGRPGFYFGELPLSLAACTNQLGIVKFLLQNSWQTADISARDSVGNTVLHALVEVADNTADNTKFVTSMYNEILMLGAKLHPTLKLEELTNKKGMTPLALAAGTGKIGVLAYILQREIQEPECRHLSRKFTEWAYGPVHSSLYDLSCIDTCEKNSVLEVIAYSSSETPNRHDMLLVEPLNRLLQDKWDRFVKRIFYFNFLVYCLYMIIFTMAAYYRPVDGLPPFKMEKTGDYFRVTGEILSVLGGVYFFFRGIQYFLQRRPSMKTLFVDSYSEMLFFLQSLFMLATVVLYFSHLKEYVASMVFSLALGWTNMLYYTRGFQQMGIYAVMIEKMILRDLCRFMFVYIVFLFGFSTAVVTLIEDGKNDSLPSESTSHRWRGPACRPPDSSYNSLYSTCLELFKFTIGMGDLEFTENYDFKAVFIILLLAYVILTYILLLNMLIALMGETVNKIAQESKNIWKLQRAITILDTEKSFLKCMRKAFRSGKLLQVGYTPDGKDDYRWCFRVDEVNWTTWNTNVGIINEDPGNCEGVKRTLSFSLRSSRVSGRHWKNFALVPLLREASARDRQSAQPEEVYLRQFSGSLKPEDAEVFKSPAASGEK

For `CS(=O)(=O)c1ccccc1-c1ccc2[nH]c(COc3cccc(C(F)(F)F)c3F)nc2c1` [Cpd 71, 2-(2-fluoro-3-trifluoromethyl-phenoxymethyl)-5-(2-methanesulfonyl-phenyl)-1H-benzoimidazole], the inhibition at 0.2 µM amounted to 43%. As to `CS(=O)(=O)c1ccccc1-c1ccc2[nH]c(COc3ccc(F)c(C(F)(F)F)c3)nc2c1` [Cpd 72, 2-(4-fluoro-3-trifluoromethyl-phenoxymethyl)-5-(2-methanesulfonyl-phenyl)-1H-benzoimidazole], the pIC50 was 7.52 and the inhibition at 0.2 µM worked out at 96%. As to `CS(=O)(=O)c1ccccc1-c1ccc2[nH]c(COc3cc(C(F)(F)F)cc(C(F)(F)F)c3)nc2c1` [Cpd 73, 2-(3,5-bis-trifluoromethyl-phenoxymethyl)-5-(2-methanesulfonyl-phenyl)-1H-benzoimidazole], the inhibition at 0.2 µM turned out to be 33%. Still for that read-out and setting: under `CS(=O)(=O)c1ccccc1-c1ccc2[nH]c(COc3ccccc3C(F)(F)F)nc2c1` [Cpd 74, 5-(2-methanesulfonyl-phenyl)-2-(2-trifluoromethyl-phenoxymethyl)-1H-benzoimidazole] stands 60%.

Regarding `CS(=O)(=O)c1ccccc1-c1ccc2[nH]c(COc3cccc(C(F)(F)F)c3)nc2c1` [Cpd 75, 5-(2-methanesulfonyl-phenyl)-2-(3-trifluoromethyl-phenoxymethyl)-1H-benzoimidazole], the pIC50 is 7.17 and the inhibition at 0.2 µM turned out to be 93%. For `Cc1ccc(OCc2nc3cc(-c4ccccc4S(C)(=O)=O)ccc3[nH]2)cc1` [Cpd 76, 5-(2-methanesulfonyl-phenyl)-2-p-tolyloxymethyl-1H-benzoimidazole] the same measures were 7.51 and 96%. Regarding `CC(C)c1ccc(OCc2nc3cc(-c4ccccc4S(C)(=O)=O)ccc3[nH]2)cc1` [Cpd 77, 2-(4-isopropyl-phenoxymethyl)-5-(2-methanesulfonyl-phenyl)-1H-benzoimidazole], the pIC50 was 8.52 and the inhibition at 0.2 µM came out at 100%. The corresponding values for `CC(C)(C)c1ccc(OCc2nc3cc(-c4ccccc4S(C)(=O)=O)ccc3[nH]2)cc1` [Cpd 78, 2-(4-tert-butyl-phenoxymethyl)-5-(2-methanesulfonyl-phenyl)-1H-benzoimidazole] are 8.52 and 98%.

In the case of `CC(=O)c1ccc(OCc2nc3cc(-c4ccccc4S(C)(=O)=O)ccc3[nH]2)cc1` [Cpd 79, 1-{4-[5-(2-methanesulfonyl-phenyl)-1H-benzoimidazol-2-ylmethoxy]-phenyl}-ethanone], the inhibition at 0.2 µM came out at 61%. In the case of `CS(=O)(=O)c1ccccc1-c1ccc2[nH]c(COc3ccc4ccccc4c3)nc2c1` [Cpd 80, 5-(2-methanesulfonyl-phenyl)-2-(naphthalen-2-yloxymethyl)-1H-benzoimidazole], the pIC50 was 7.85 and the inhibition at 0.2 µM stood at 99%. For `CCOc1ccc(OCc2nc3cc(-c4ccccc4S(C)(=O)=O)ccc3[nH]2)cc1` [Cpd 81, 2-(4-ethoxy-phenoxymethyl)-5-(2-methanesulfonyl-phenyl)-1H-benzoimidazole] the same measures were 7.07 and 96%. The corresponding values for `CS(=O)(=O)c1ccccc1-c1ccc2[nH]c(COc3ccc(SC(F)(F)F)cc3)nc2c1` [Cpd 82, 5-(2-methanesulfonyl-phenyl)-2-(4-trifluoromethanesulfide-phenoxymethyl)-1H-benzoimidazole] are 8.15 and 99%. Take `CS(=O)(=O)c1ccccc1-c1ccc2[nH]c(COc3ccc(C#N)cc3)nc2c1` [Cpd 83, 4-[5-(2-methanesulfonyl-phenyl)-1H-benzoimidazol-2-ylmethoxy]-benzonitrile]: the inhibition at 0.2 µM amounted to 51%. Same read-out and setting: the result for `CS(=O)(=O)c1ccc(OCc2nc3cc(-c4ccccc4S(C)(=O)=O)ccc3[nH]2)cc1` [Cpd 85, 2-(4-methanesulfonyl-phenoxymethyl)-5-(2-methanesulfonyl-phenyl)-1H-benzoimidazole] reads 12%. Consider `CS(=O)(=O)c1ccccc1-c1ccc2[nH]c(COc3ccc4c(c3)CCCC4)nc2c1` [Cpd 87, 5-(2-methanesulfonyl-phenyl)-2-(5,6,7,8-tetrahydro-naphthalen-2-yloxymethyl)-1H-benzoimidazole], for which the pIC50 is 7.85 and the inhibition at 0.2 µM is 96%.

In the case of `COC(=O)CCc1ccc(OCc2nc3cc(-c4ccccc4S(C)(=O)=O)ccc3[nH]2)cc1` [Cpd 88, 3-{4-[5-(2-methanesulfonyl-phenyl)-1H-benzoimidazol-2-ylmethoxy]-phenyl}-propionic acid methyl ester], the inhibition at 0.2 µM worked out at 36%. On to `Cc1ccc(OCc2nc3cc(-c4ccccc4S(C)(=O)=O)ccc3[nH]2)c(C)c1` [Cpd 89, 2-(2,4-dimethyl-phenoxymethyl)-5-(2-methanesulfonyl-phenyl)-1H-benzoimidazole], for which the pIC50 was 7.28 and the inhibition at 0.2 µM came out at 90%.

Turning to `Cc1cc(C)cc(OCc2nc3cc(-c4ccccc4S(C)(=O)=O)ccc3[nH]2)c1` [Cpd 90, 2-(3,5-dimethyl-phenoxymethyl)-5-(2-methanesulfonyl-phenyl)-1H-benzoimidazole], the inhibition at 0.2 µM worked out at 31%. With `CS(=O)(=O)c1ccccc1-c1ccc2[nH]c(COc3ccc4c(c3)CCC4)nc2c1` [Cpd 91, 2-(indan-5-yloxymethyl)-5-(2-methanesulfonyl-phenyl)-1H-benzoimidazole], the pIC50 was 7.68 and the inhibition at 0.2 µM was found to be 99%. For `CS(=O)(=O)c1ccccc1-c1ccc2[nH]c(COc3ccc4c(c3)OCO4)nc2c1` [Cpd 92, 2-(benzo[1,3]dioxol-5-yloxymethyl)-5-(2-methanesulfonyl-phenyl)-1H-benzoimidazole] the same measures were 7.07 and 76%. Consider `CS(=O)(=O)c1ccccc1-c1ccc2[nH]c(COc3cc(Cl)cc(Cl)c3)nc2c1` [Cpd 93, 2-(3,5-dichloro-phenoxymethyl)-5-(2-methanesulfonyl-phenyl)-1H-benzoimidazole], for which the inhibition at 0.2 µM worked out at 11%. Still for that read-out and setting: under `CC(=O)Nc1cccc(OCc2nc3cc(-c4ccccc4S(C)(=O)=O)ccc3[nH]2)c1` [Cpd 94, N-{3-[5-(2-methanesulfonyl-phenyl)-1H-benzoimidazol-2-ylmethoxy]-phenyl}-acetamide] stands 1%; under `CC(=O)Nc1ccc(OCc2nc3cc(-c4ccccc4S(C)(=O)=O)ccc3[nH]2)cc1` [Cpd 95, N-{4-[5-(2-methanesulfonyl-phenyl)-1H-benzoimidazol-2-ylmethoxy]-phenyl}-acetamide], 1%. On the same count and under the same terms, under `COc1ccc(OCc2nc3cc(-c4ccccc4S(C)(=O)=O)ccc3[nH]2)cc1` [Cpd 96, 5-(2-methanesulfonyl-phenyl)-2-(4-methoxy-phenoxymethyl)-1H-benzoimidazole] stands 6%; under `COc1cccc(OCc2nc3cc(-c4ccccc4S(C)(=O)=O)ccc3[nH]2)c1` [Cpd 97, 5-(2-methanesulfonyl-phenyl)-2-(3-methoxy-phenoxymethyl)-1H-benzoimidazole], 42%.

As a reminder, the inhibition is the share of the control response that was lost under treatment. What is called pIC50 is the IC50 on a negative log10 scale, so that one unit is a factor of ten.
